≈ marks a conversion by molar mass, not a printed value. Entries after “also recorded” stand apart in the source; their conditions may differ. Like-named read-outs stand apart in the source and are kept apart here.
Assays:
THP1 cells [1] = test: Differentiation assay (CD14 expression) in THP1; details: Homo sapiens
U937 cells [2] = test: Annexin V apoptosis assay in U937; details: for EC50: Homo sapiens, U-937, 72 h, read-out: apoptosis EC50 U937 (CL 95%)
[3] = In vitro metabolic profile in rat-liver microsomes; type: in vitro ADME; details: for metabolites identified in sample C: active rat-liver microsomes and regenerating system, HPLC-HRMS; for metabolic stability: rat-liver microsomes, 2 h
Procedure: SyGMa (systematic generation of potential metabolites) software, a tool that lists predicted metabolites with associated empirical probability scores, was used to identify putative metabolites, which were then investigated by analyzing samples with liquid chromatography coupled to high-resolution mass spectrometry (HPLC–HRMS). […] The full-scan MS data acquired for all of the samples were analyzed to find the m/z values of the predicted molecular structures. In order to exclude interfering signals, the results obtained were compared to blank samples and common background peaks were not considered.
Rat-liver microsomes (Sprague-Dawley, male, Sigma-Aldrich; 20 mg/mL protein concentration) were incubated with the candidate compound solution (5 μM final concentration, with 1% DMSO) and Tris buffer (0.1 M, pH = 7.4). The regenerating system, which slowly generated coenzyme units over the incubation time, leading to a better reproduction of in vivo behavior, was composed of MgCl2 (3.3 mM), NADP^+ (1.3 mM), Glu6P (3.5 mM), and Glu6P dehydrogenase (0.5 U/mL).
The incubation time started with the addition of the microsomes suspension (0.5 mg/mL).
Metabolic reactions were stopped by adding 100 μL of cooled acetonitrile to the 100 μL sample of the incubation mixture. Samples were centrifuged to provoke protein precipitation, and the supernatants were immediately stocked at −80 °C, until analysis, to prevent the potential degradation of unstable products.
The products of in vitro metabolism were identified using a high-resolution mass spectrometer (Q-Exactive Orbitrap, Thermo Scientific) coupled to an HPLC instrument (1200 system Agilent). All analytes were separated on an Ascentis C18 column (150 mm × 2.1 mm, 5 μm particle size) maintained at 35 °C. The elution mixture was composed of solvent A (0.1% formic acid in water for positive ionization mode and 0.05% acetic acid for negative ionization mode) and solvent B (acetonitrile). […] MS2-DIA scans were acquired at R = 17 500 and with variable collision energies ranging from 30 to 45, depending on the m/z of the parent ion.

THP1 cells [4] = test: Fixed-concentration screening of differentiation (CD14) and apoptosis (annexin V) in THP1, with or without uridine; type: cell-based, human
Procedure: DMSO (dimethyl sulfoxide) acts as the negative control group as it was used to solubilize hDHODH inhibitors. ∗, ∗∗, ∗∗∗ represent the statistical significance for apoptosis (respectively p < 0.05, < 0.01, and <0.001). #, ##, and ### represent the statistical significance for differentiation (respectively p < 0.05, <0.01, and <0.001). The statistical significance is calculated by comparing the compounds to DMSO.
The statistical significance is calculated by comparing the compounds to DMSO.

recombinant hDHODH = molecular target: T1, recombinant hDHODH (Homo sapiens, UniProt Q02127); test: hDHODH inhibition assay (DCIP reduction); type: biochemical
T1 construct: made in house; host or cells: E. coli BL21DE3 PyrD
T1 sequence (Q02127 whole entry): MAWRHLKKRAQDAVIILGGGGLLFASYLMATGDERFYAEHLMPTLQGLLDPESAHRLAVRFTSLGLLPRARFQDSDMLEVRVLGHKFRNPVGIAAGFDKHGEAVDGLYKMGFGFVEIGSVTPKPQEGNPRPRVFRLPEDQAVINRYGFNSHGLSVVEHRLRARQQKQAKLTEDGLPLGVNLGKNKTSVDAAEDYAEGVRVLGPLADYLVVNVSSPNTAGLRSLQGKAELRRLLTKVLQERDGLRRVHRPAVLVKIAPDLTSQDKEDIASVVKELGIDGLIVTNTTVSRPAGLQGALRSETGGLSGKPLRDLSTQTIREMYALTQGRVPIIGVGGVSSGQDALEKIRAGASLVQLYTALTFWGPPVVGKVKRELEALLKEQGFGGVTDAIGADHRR
Procedure: BL21DE3 PyrD E. coli cells were transformed using the plasmid construct pFN2A–hDHODH (kindly given by Department of Drug Science and Technology, University of Turin, Turin, Italy). The vector produces hDHODH as an N-terminal GST-fusion protein. Cells were grown at 37 °C in LB medium supplemented with 0.1 mM flavin mononucleotide (Cayman Chemical). […] Triton X-100 was added to the lysate, to a final concentration of 1%, before centrifugation at 14 000g for 40 min at 4 °C. The clarified supernatant was incubated with DNase I for 30 min at room temperature, supplemented with 2 mM dithiothreitol (DTT), and filtered through a 0.45 μm syringe filter as previously described by Sainas et al.[18] The GST-fused enzyme was purified from the bacterial lysate using affinity chromatography on immobilized glutathione-Sepharose columns (GE- […]). The GST tag was not cleaved for further analysis. All the reagents used in the protein expression and purification were supplied by Merck/Sigma-Aldrich if not otherwise specified.
The enzymatic inhibition assay was optimized for being performed on a 96-well plate and to achieve higher throughput. For each well of the plate a total volume of 200 μL was used: 5 μL of purified GST-hDHODH; 60 μL of 2,6-dichloroindophenol (DCIP) 50 μM; 20 μL of coenzyme Q10 enzyme 100 μM; 20 μL of dihydroorotate (DHO) 500 μM; Tris-HCl, pH 8, up to a final volume of 200 μL. Inhibitory activity was assessed by monitoring the reduction of DCIP, which is associated with the oxidation of dihydroorotate as catalyzed by the DHODH enzyme. The enzyme was preincubated for 5 min at 37 °C in Tris-HCl, pH 8, with coenzyme Q10, with DCIP (50 μM), and with the compounds to be tested used at different concentrations (final DMSO concentration 0.1% v/v). The reaction was initiated by the addition of DHO (500 μM), and the absorbance kinetic reduction was monitored at λ = 650 nm using a multiplate reader (Tecan, M1000Pro). In order to assess the minimum and maximum absorbance values of the enzymatic reaction, a Min control value was obtained by measuring the absorbance without DHO. Similarly, a Max value was obtained by measuring the absorbance with DHO but no inhibitor. A blank reduction calculation was also performed by measuring the absorbance values using 180 μL of Tris-HCl and 20 μL of coenzyme Q10. The instrument was set to read the absorbance values every 10 s for a total read time of 10 min at 37 °C. […] Values are the mean ± SE of three independent experiments.

Jurkat cells = test: CFSE-based cytotoxic activity assay; details: concentration inducing cytotoxicity ≥30%, 3 days
THP1 cells [5] = test: Annexin V apoptosis assay in THP1; details: for EC50: Homo sapiens
[6] = Solubility assay at pH 7.4 in PBS; type: physicochemical; details: pH 7.4, 25 °C, 24 h, LOD 6 μM; for solubility at 24 h: phosphate buffered saline
Procedure: These suspensions were filtered through a PTFE 0.45 μm filter (VWR), and the solutions were chromatographically analyzed using a PerkinElmer ultrahigh performance liquid chromatography (UHPLC) instrument, equipped with a reverse-phase (RP) C18 Phenomenex column (2.1 mm × 100 mm, 1.7 μm particle size). […] The flow rate was 0.5 mL/min. Standard injection volumes were either 2 or 4 μL for poorly soluble compounds. The detection system was a PerkinElmer diode array detector. The wavelengths that were monitored for each compound were defined according to the compound’s own absorption spectrum. Solubility, expressed as μM concentration of the saturated solution, was calculated via interpolation with external calibration curves that were obtained with solutions of each compound in acetonitrile.

U937 cells [7] = test: Differentiation assay (CD11b expression) in U937; details: for EC50: Homo sapiens, U-937, 72 h, read-out: differentiation EC50 U937 (CL 95%)
[8] = LogD7.4, shake-flask n-octanol/PBS; details: n-octanol/PBS, pH 7.4
Procedure: The partition coefficients between n-octanol and PBS at pH 7.4 (LogD^7.4) were obtained using the shake-flask technique at room temperature. In the shake-flask experiments, 50 mM phosphate buffered saline, pH 7.4, was used as the aqueous phase. The organic (n-octanol) and aqueous phases were mutually saturated by shaking for 4 h. The compounds were solubilized in the buffered aqueous phase at the highest concentration compatible with solubility, and appropriate amounts of n-octanol were added. The two phases were shaken for about 20 min, by which time the partitioning equilibrium of solutes had been reached, and then centrifuged (10 000 rpm, 10 min). The concentration of the solutes was measured in the aqueous phase using a UV spectrophotometer (Varian Cary 50BIO); absorbance values (recorded for each compound at the wavelength of maximum absorption) were interpolated in calibration curves obtained using standard solutions of the compounds (r^2 > 0.99). Each log D value is an average of at least six measurements.

[9] = Protein binding in vitro (ultrafiltration); type: in vitro ADME; details: male, human serum, 37 °C, read-out: protein binding (% bond) (converted)
Procedure: This was achieved via ultrafiltration using commercially available membrane systems (Centrifree ultrafiltration devices with ultracel YM-T membrane, Merck). […] 1 mL of the solution obtained in the sample reservoir of the ultrafiltration device was gently shaken in an orbital shaker at 37 °C for 1 h. […] The concentrations of the compounds in the ultrafiltrate and filtrate were determined using reverse-phase UHPLC, and the chromatographic conditions were those described above with different injection volumes: 20 μL for ultrafiltrate samples and 2 μL for filtrate samples.

[10] = THP-1, 72 h, read-out: differentiation EC50 THP1 (CL 95%)
[11] = THP-1, read-out: Differentiation EC50 (C.L.95%) (supplement CSV)
[12] = supplementary CSV, values differ from Table 2, read-out: hDHODH IC50 ± SE (supplement CSV)
[13] = THP-1, 72 h, read-out: apoptosis EC50 THP1 (CL 95%)
[14] = THP-1, read-out: Apoptosis EC50 (C.L.95%) (supplement CSV)
[15] = mean ± SE of three independent experiments, read-out: hDHODH, IC50 ± SE

SMILES | EC50 (THP1 cells [1]; [10]) | EC50 (THP1 cells [1]; [11]) | EC50 (U937 cells [2]) | metabolites identified in sample C [3] | activity in cells (differentiation and apoptosis) (THP1 cells [4]; THP1, 0.1 μM) | IC50 (recombinant hDHODH; [12]) | cytoxicity Jurkat (effect ≥30% ± SD) (Jurkat cells) | EC50 (THP1 cells [5]; [13]) | EC50 (THP1 cells [5]; [14]) | solubility at 24 h [6] | EC50 (U937 cells [7]) | logD [8] | fraction unbound at 1 h, 50 µM [9] | IC50 (recombinant hDHODH; [15]) | other results
O=C(Nc1c(F)c(F)c(-c2cccc(OC(F)(F)F)c2)c(F)c1F)c1c(O)nn2ccccc12 [Compound 15, 2-Hydroxy-N-(2,3,5,6-tetrafluoro-3′-(trifluoromethoxy)-[1,1′-biphenyl]-4-yl)pyrazolo[1,5-a]pyridine-3-carboxamide] | 31.5 nM | 28 nM | 35.3 nM | did not identify appreciable concentration of metabolites | highly active | 2.62 ± 0.79 nM | >100 µM | 39.6 nM | 32.6 nM | 8.1 µM (≈ 3.93 µg/mL) | 8.6 nM | 3.27 ± 0.19 | – | – | parent compound recovered ([3]; rat-liver microsomes with regenerating system, 2 h incubation): 100%; metabolic stability [3]: metabolically stable; also recorded: good metabolic stability
O=C(Nc1c(F)c(F)c(-c2ccccc2)c(F)c1F)c1c(O)nn2ccccc12 [Compound 1] | – | – | – | monohydroxylated, dihydroxylated, and methoxylated metabolites | – | – | – | – | – | – | – | – | – | – | –
O=C(Nc1c(F)c(F)c(-c2cccc(C(F)(F)F)c2)c(F)c1F)c1c(O)nn2ccccc12 [Compound 13, 2-Hydroxy-N-(2,3,5,6-tetrafluoro-3′-(trifluoromethyl)-[1,1′-biphenyl]-4-yl)pyrazolo[1,5-a]pyridine-3-carboxamide] | 38.3 nM | 32 nM | 60 nM | – | highly active | 3.01 ± 0.37 nM | >100 µM | 51.1 nM | 42.9 nM | < 6 µM | 34.2 nM | 2.69 ± 0.03 | 0.0006 | 6.34 ± 0.63 nM | solubility in PBS [6]: <LOD
COc1cccc(-c2c(F)c(F)c(NC(=O)c3c(O)nn4ccccc34)c(F)c2F)c1 [Compound 16, 2-Hydroxy-N-(2,3,5,6-tetrafluoro-3′-methoxy-[1,1′-biphenyl]-4-yl)pyrazolo[1,5-a]pyridine-3-carboxamide] | 31.2 nM | 26.9 nM | 42.8 nM | – | highly active | 1.47 ± 0.33 nM | 68 ± 7 µM | 37.9 nM | 29.6 nM | 74.3 µM (≈ 32 µg/mL) | 31.1 nM | – | 0.0005 | – | –
O=C(Nc1c(F)c(F)c(-c2cccnc2)c(F)c1F)c1c(O)nn2ccccc12 [Compound 8, 2-Hydroxy-N-(2,3,5,6-tetrafluoro-4-(pyridin-3-yl)phenyl)pyrazolo[1,5-a]pyridine-3-carboxamide] | – | – | – | – | – | 7.19 ± 0.19 nM | – | – | – | – | – | 0.98 ± 0.03 | 0.0042 | 6.23 ± 0.63 nM | activity in cells (differentiation and apoptosis) (THP1 cells [4]; THP1, 1 μM): basically inactive
O=C(Nc1c(F)c(F)c(-c2cccc(F)c2)c(F)c1F)c1c(O)nn2ccccc12 [Compound 11, 2-Hydroxy-N-(2,3,3′,5,6-pentafluoro-[1,1′-biphenyl]-4-yl)pyrazolo[1,5-a]pyridine-3-carboxamide] | 67.6 nM | 58.9 nM | 68.2 nM | – | highly active | 2.37 ± 0.35 nM | 39 ± 3 µM | 250 nM | 222 nM | < 6 µM | 40.7 nM | 2.09 ± 0.04 | 0.0004 | 2.03 ± 0.44 nM | solubility in PBS [6]: <LOD
CCCOc1cccc(-c2c(F)c(F)c(NC(=O)c3c(O)nn4ccccc34)c(F)c2F)c1 [Compound 17, 2-Hydroxy-N-(2,3,5,6-tetrafluoro-3′-propoxy-[1,1′-biphenyl]-4-yl)pyrazolo[1,5-a]pyridine-3-carboxamide] | – | – | – | monohydroxylated and dealkylated metabolites | highly active | – | >100 µM | – | – | – | – | 3.28 ± 0.12 | – | – | efficacy in comparison with brequinar, apoptosis U937 (U937 cells [2]; EC50 ratio vs brequinar): 19 times; time after which parent compound was no longer present ([3]; rat-liver microsomes with regenerating system): ≤ 30 min; metabolic stability [3]: fast metabolism; also recorded: weaker in vitro stability; superiority to brequinar, apoptosis THP1 (THP1 cells [5]; EC50 ratio vs brequinar): 13 times; efficacy in comparison with brequinar, differentiation U937 (U937 cells [7]; EC50 ratio vs brequinar): 41 times
Cc1c(-c2ccc(-c3ccccc3F)cc2)nc2ccc(F)cc2c1C(=O)O [Brequinar, reference compound] | – | – | – | – | – | – | – | – | – | – | – | – | 0.0117 | – | –
